Source: US12030929B2, “Fusobacterium nucleatum amyloid-like FadA for diagnosis and treatment of Fn-mediated pathogenesis” (The Trustees of Columbia University in the City of New York, priority 2021, dated 2024)

System: Fn 12230
Test: Biofilm assay: Fn biofilm formation on detergent-resistant Fn pellets
Format: cell-based, Fusobacterium nucleatum
Settings: 0, 10 or 50 μg/ml Congo Red; 48 or 72 hours; crystal violet OD550
Method: FIG. 4A-4F. Functional analysis of amyloid-like FadA in vitro. 4A. Facilitation of Fn biofilm formation by amyloid-like FadA. An aliquot of 10 μg each of the detergent-resistant pellets prepared from of Fn 12230 (wild type), US1 (ΔfadA) and lam, or PBS, was added to the 96-well plates and incubated at 37° C. for 5 hours. Fresh culture of Fn 12230 was diluted to OD600 of 0.2 and an aliquot of 200 μl was added to the wells, followed by incubation at 37° C. for 48 or 72 hours under anaerobic conditions. Following washes, the biofilms were incubated with 100 μl 0.1% crystal violet for 15 min. After washing, 100 μl 95% ethanol was added to each well and the optical density at OD550 was measured in a microplate reader. The results shown are the average of four experiments each performed in duplicate. A representative image following 72 hours of incubation is shown in the top panel. **p<0.01. ***p<0.001 (t-test). 4B. Inhibition of biofilm formation mediated by detergent-resistant Fn pellets by Congo Red. An aliquot of 10 μg detergent-resistant pellets prepared from Fn 12230 (pellet) was added in 96-well plates in the presence of 0, 10 or 50 μg/ml Congo Red (CR), followed by addition of Fn 12230 and incubated as described above. The results shown are the average of four experiments each performed in duplicate. […]

Nc1c(/N=N/c2ccc(-c3ccc(/N=N/c4cc(S(=O)(=O)O)c5ccccc5c4N)cc3)cc2)cc(S(=O)(=O)O)c2ccccc12 [Congo Red]
biofilm formation mediated by detergent-resistant Fn pellets: inhibited biofilm formation in a dose-dependent manner
